Data from patent publication US20150037397A1, “PHARMACEUTICAL COMPOSITIONS OF PYRIDINIUM AND QUINOLINIUM DERIVATIVES” (TRASLATIONAL CANCER DRUGS PHARMA, S.L., priority 2010, published 2015).

How the values were obtained:
[1] = Chemical stability of TCD717 in solution under stress conditions; assay type: physicochemical
Description: The chemical stability of TCD717 (compound No. 6, Q=Br) in solution (which comprises MeOH/water 3:1 v/v and additional stress elements, as indicated in the Table) under various stress conditions is provided in the following Table.

[2] = pH solubility profiling in Titrisol buffers (HPLC after filtration); assay type: physicochemical; conditions: 24 h, room temperature
Method: The pH solubility profile of compound TCD717 (compound No. 6, Q=Br) was assessed at pH 2-8. […] The TCD717 concentration after filtration through a 0.22 μm pore size PVDF filter was determined using HPLC.

[3] = Solubility in saline solutions at different NaCl concentrations; assay type: physicochemical; conditions: NaCl 2, 5, 10, 20, 100 and 165 mM (FIG. 2)
Method: To obtain a greater insight on the sensitivity of the solubility for sodium and chloride ions, the solubility of TCD717 was tested in saline solutions at NaCl concentrations of 2, 5, 10, 20, 100 and 165 mM NaCl.

[4] = Solubility testing in lipophilic and amphiphilic vehicles; assay type: physicochemical
Method: The solubility of TCD717 was determined in selected vehicles. […] The undissolved fraction of TCD717 was separated by filtration through a 0.22 μm pore size PVDF filter, and the filtrate was diluted before analyzing the TCD717 content by HPLC.

[5] = Solubility in simulated biological media and dilution media; assay type: physicochemical; conditions: for Solubility of TCD717: 24 h stirring, room temperature
[6] = assay type: physicochemical
Method: The solubility of solid TCD717 at room temperature in prototype vehicles suitable for intravenous formulation and the behavior after five-fold dilution with 0.9% NaCl solutions was tested. Formulations were prepared by dissolving the components in water at the indicated concentration.

CN(c1ccc(Cl)cc1)c1cc[n+](Cc2ccc(-c3ccc(C[n+]4ccc(N(C)c5ccc(Cl)cc5)c5ccccc54)cc3)cc2)c2ccccc12.[Br-].[Br-] [TCD717]
Observation (chemical stability) ([1]; MeOH/water 3:1 v/v, 0.1M HCl/1 day): No degradation observed
Observation (chemical stability), degradation ([1]; MeOH/water 3:1 v/v, 0.1M NaOH/1 day): Some degradation (~6%)
Observation (chemical stability) ([1]; MeOH/water 3:1 v/v, 3% H2O2 + 0.1M HCl): Complete degradation
Observation (chemical stability) ([1]; MeOH/water 3:1 v/v, 3% H2O2 + 0.1M NaOH): Complete degradation
Observation (chemical stability) ([1]; MeOH/water 3:1 v/v, 3% H2O2/1 day): No degradation observed
Stability ([1]; combinations of acidic/oxidizing and basic/oxidizing conditions): very unstable
Stability ([1]; under basic conditions): only moderately stable
TCD717 concentration (solubility) ([2]; Boron acid/HCl/NaOH 110 mM (Tritrisol), buffer pH 8): 3 µg/mL
TCD717 concentration (solubility) ([2]; Citrate/HCl 30 mM (Tritrisol), buffer pH 2): 45 µg/mL
TCD717 concentration (solubility) ([2]; Citrate/HCl 40 mM (Tritrisol), buffer pH 3): 32 µg/mL
TCD717 concentration (solubility) ([2]; Citrate/HCl 56 mM (Tritrisol), buffer pH 4): 8 µg/mL
TCD717 concentration (solubility) ([2]; Citrate/NaOH 60 mM (Tritrisol), buffer pH 6): 62 µg/mL
TCD717 concentration (solubility) ([2]; Citrate/NaOH 96 mM (Tritrisol), buffer pH 5): 6 µg/mL
TCD717 concentration (solubility) ([2]; Phosphate (K + Na+) 67 mM (Tritrisol), buffer pH 7): 860 µg/mL
TCD717 concentration (solubility) ([2]; Water, suspended at 5 mg/ml): 200 µg/mL
Aqueous solubility as a function of NaCl concentration [3]: decreases at NaCl concentrations above 20 mM
Solubility ([4]; Cremophor EL35, at least 24 h at 45° C.): 0.78 mg/g
Solubility ([4]; Miglyol 812, at least 24 h at 45° C.): 0.002 mg/g
Solubility ([4]; Solutol HS15, at least 24 h at 45° C.): 2.3 mg/g
Affinity for detergents ([4]; Solutol HS 15 and Tween 80): low affinity
Solubility ([4]; Soya oil, at least 24 h at 45° C.): 0.015 mg/g
Solubility ([4]; Tween 80, at least 24 h at 45° C.): 3.1 mg/g
Solubility ([4]; soy oil and Miglyol): very low
Solubility of TCD717 ([5]; Glucose 5% (w/v)): 260 µg/mL
Solubility of TCD717 ([5]; Human Serum Albumin 2% (w/v)): 275 µg/mL
Solubility of TCD717 ([5]; Saline 0.9% (w/v)): 9 µg/mL
Solubility of TCD717 ([5]; Water): 200 µg/mL
Solubility in aqueous NaCl 0.9% ([5]; aqueous NaCl 0.9%): 9 µg/mL
Solubility in water ([5]; water at 25° C.): 200 µg/mL
Solubilization potential of the solubilizing agent for TCD717 [6]: highest solubilization potential
Precipitation after dilution ([6]; HP-β-CD composition, five-fold dilution with 0.9% NaCl solutions): no precipitation
